In patent US4061737A, “Method for stimulating release of prolactin” (American Home Products Corporation, priority 1976, dated 1977):

How the values were obtained:
[1] = test system: Male Charles River CD rats; test: Prolactin plasma levels in rats 15 minutes after enkephalin injection (radioimmunoassay); format: in vivo, rat; conditions: for Change in prolactin levels upon injection (in words): 5 mg/kg., subcutaneous or intravenous
Protocol: Male Charles River CD rats were injected with the enkephalin (in saline) or saline alone either subcutaneously or intravenously via the femoral vein. Fifteen minutes later the animals were decapitated and blood collected (12 mg. versene and 6000 units of Trasylol added per tube). Each plasma sample was assayed for prolactin in quadruplicate by specific double antibody radioimmunoassays, using NIAMDD reagents and the procedure of Neill and Reichert, Endocrinology, 88, 548 (1971).

rat pituitary cells = test: Prolactin release in monolayer cultures of rat pituitary cells; format: cell-based; conditions: for Prolactin release versus control (in words): all levels from 5 ng/ml to 50 μg/ml; for Prolactin Release (mean ± SEM): 3 hours at 37° C., control 197 ± 13
Protocol: Monolayer cultures of enzymatically dispersed pituitary cells were prepared from male rats, using Eagle's minimal essential medium for growth. After incubation in triplicate dishes for 3 hours at 37° C. in 95% air: 5% CO2, the supernatant from each dish was assayed for prolactin in duplicate.

mouse vas deferens = conditions: cited from earlier work
guinea pig ileum = conditions: cited from earlier work
opiate receptor sites = conditions: cited from earlier work
[2] = in vivo; cited from earlier work
[3] = Experiment 2, 5mg/kg. SC, 15 minutes after injection, control 40 ± 3

Structure (SMILES)	Change in prolactin levels upon injection (in words) [1]	Prolactin plasma level (mean ± SEM) ([1]; Experiment 1, 5mg/kg. SC, 15 minutes after injection, control 29 ± 3) [ng/mL]	Prolactin plasma level (mean ± SEM) [1, 3] [ng/mL]	Prolactin plasma level (mean ± SEM) ([1]; Experiment 4, 5mg/kg. IV, 15 minutes after injection, control 43 ± 7) [ng/mL]	Prolactin plasma level (mean ± SEM) ([1]; Experiment 5, 5mg/kg. IV, 15 minutes after injection, control 31 ± 3) [ng/mL]	Prolactin plasma level (mean ± SEM) ([1]; Experiment 6, 5mg/kg. IV, 15 minutes after injection, control 47 ± 5) [ng/mL]	Prolactin plasma level (mean ± SEM) ([1]; Experiment 8, 5mg/kg. IV, 15 minutes after injection, control 63 ± 10) [ng/mL]	Prolactin release versus control (in words) (rat pituitary cells)	Prolactin Release (mean ± SEM) (rat pituitary cells; enkephalin 5 ng/ml) [ng/mL]	Prolactin Release (mean ± SEM) (rat pituitary cells; enkephalin 50 ng/ml) [ng/mL]	Prolactin Release (mean ± SEM) (rat pituitary cells; enkephalin 500 ng/ml) [ng/mL]	Prolactin Release (mean ± SEM) (rat pituitary cells; enkephalin 5 μg/ml) [ng/mL]	Prolactin Release (mean ± SEM) (rat pituitary cells; enkephalin 50 μg/ml) [ng/mL]	Contractions of mouse vas deferens (in words) (mouse vas deferens)	Contractions of guinea pig ileum (in words) (guinea pig ileum)	Stereospecific binding of 3H-naloxone to guinea pig brain (in words) (opiate receptor sites)	Prolactin plasma level (mean ± SEM) ([1]; Experiment 3, 5mg/kg. IV, 15 minutes after injection, control 20 ± 1) [ng/mL]	Prolactin plasma level (mean ± SEM) ([1]; rat, in vivo)	Prolactin release compared with leucine-enkephalin (in words) (rat pituitary cells; difference statistically significant at 50 μg/ml and 500 ng/ml)	Prolactin levels (in words) [2]
CC(C)C[C@H](NC(=O)[C@H](Cc1ccccc1)NC(=O)CNC(=O)CNC(=O)[C@@H](N)Cc1ccc(O)cc1)C(=O)O [Leu-Enkephalin, H-Tyr-Gly-Gly-Phe-Leu-OH]	more variable	40 ± 6	40 ± 3	29 ± 5	55 ± 5	59 ± 11	61 ± 10	significantly increased	247 ± 7	254 ± 14	253 ± 18	244 ± 10	260 ± 15	inhibit	inhibit	inhibit	–	–	–	–
CSCC[C@H](NC(=O)[C@H](Cc1ccccc1)NC(=O)CNC(=O)CNC(=O)[C@@H](N)Cc1ccc(O)cc1)C(=O)O [Met-Enkephalin, H-Tyr-Gly-Gly-Phe-Met-OH]	consistent, statistically significant increase	–	49 ± 3	–	–	–	–	significantly increased	261 ± 15	257 ± 14	305 ± 14	255 ± 10	307 ± 8	inhibit	inhibit	inhibit	24 ± 1	43 ± 3	greater release of prolactin than leucine-enkephalin	–
CN1CC[C@]23c4c5ccc(O)c4O[C@H]2[C@@H](O)C=C[C@H]3[C@H]1C5 [morphine, reference compound]	–	–	–	–	–	–	–	–	–	–	–	–	–	also elicited by morphine	also elicited by morphine	–	–	–	–	can raise prolactin levels
